Results: patent publication US7705188B2 (Arizona Board of Regents, a body corporate of the State of …, priority 2002, dated 2010)
Converted amounts (≈) assume the structure as drawn. Read-outs that look alike come from different tables or passages of the source.

Assays:
[1] = tested on: human leukemia HL-60 cell line; details: cited from earlier work
Streptococcus pneumoniae = assay: Antimicrobial broth microdilution, MIC; format: cell-based; details: read-out: Minimum inhibitory concentration
Text: (§1) Stilbene production has been correlated with the resistance of grape leaves to fungal infection.

Staphylococcus aureus = assay: Antimicrobial broth microdilution, MIC; format: cell-based; details: read-out: Minimum inhibitory concentration
Text: as §1

Enterococcus faecalis = assay: Antimicrobial broth microdilution, MIC; format: cell-based; details: for MIC: read-out: Minimum inhibitory concentration
Text: as §1

Enterobacter cloacae = assay: Antimicrobial broth microdilution, MIC; format: cell-based; details: read-out: Minimum inhibitory concentration
Text: as §1

Escherichla coli = assay: Antimicrobial broth microdilution, MIC; format: cell-based; details: read-out: Minimum inhibitory concentration
Text: as §1

Cryptococcus neoformans = assay: Antimicrobial broth microdilution, MIC; format: cell-based; details: read-out: Minimum inhibitory concentration
Text: as §1

Neisseria gonorrhoeae = assay: Antimicrobial broth microdilution, MIC; format: cell-based
Text: as §1

[2] = tested on: Stenotrophomonas maltophilia; assay: Antimicrobial broth microdilution, MIC; format: cell-based; details: read-out: Minimum inhibitory concentration
Text: as §1

Candida albicans = assay: Antimicrobial broth microdilution, MIC; format: cell-based; details: read-out: Minimum inhibitory concentration
Text: as §1

Micrococcus luteus = assay: Antimicrobial broth microdilution, MIC; format: cell-based; details: read-out: Minimum inhibitory concentration
Text: as §1

DU-145 = assay: Cytotoxicity, prostate DU-145; format: cell-based, human
KM201.2 = assay: Cytotoxicity, colon KM201.2; format: cell-based, human; details: KM201.2
NCI-H460 = assay: Cytotoxicity, lung-NSC NCI-H460; format: cell-based, human
tubulin [3] = assay: Inhibition of tubulin polymerization; format: biochemical; details: for IC50: tubulin 10 μM, extent of assembly after 20 min at 30° C., read-out: Inhibition of tubulin Polymerization IC50 (μM) ± SD; for Inhibition of tubulin assembly, in words: direct comparison with 2a and 2c
Procedure: (§2) Extent of assembly after 20 min at 30° C. was the parameter measured. The colchicine binding assay was performed as earlier reported.^27 The tubulin concentration was 1.0 μM, the [3H] colchicine concentration was 5.0 μM, and the potential inhibitor concentrations were as indicated. Binding of colchicine was measured following a 10 min incubation at 37° C.

SF-268 = assay: Cytotoxicity, CNS SF-268; format: cell-based, human
BXPC-3 = assay: Cytotoxicity, pancreas-a BXPC-3; format: cell-based, human
tubulin [4] = assay: Inhibition of [3H]colchicine binding to tubulin; details: for Inhibition of colchicine binding % Inhibition, 2 μM inhibitor / Inhibition of colchicine binding % Inhibition, 5 μM inhibitor: tubulin 1.0 μM, [3H]colchicine 5.0 μM, 10 min at 37° C.
Procedure: as §2

[5] = tested on: murine CaNT adenocarcinoma; details: six hours after single i.p. injection, 100 mg/kg; cited from earlier work
[6] = tested on: P-388 and human tumor cell lines; assay: Cytotoxicity, summary over P-388 and human tumor cell lines; format: cell-based
bacteria and fungi = assay: Antimicrobial evaluation, summary; format: cell-based
Text: as §1

MCF-7 = assay: Cytotoxicity, breast MCF-7; format: cell-based, human; details: Homo sapiens, MCF7
[7] = Neisseria gonorrhoeae; read-out: Minimum inhibitory concentration

Oc1ccc(/C=C/c2cc(O)cc(O)c2)cc1 [Compound 1, 3,4′,5-trihydroxy-trans-stilbene, reference compound]
Apoptosis and Bcl-2 expression [1]: induce apoptosis and decrease expression of Bcl-2
MIC (Streptococcus pneumoniae): > 64 µg/mL
MIC (Staphylococcus aureus): > 64 µg/mL
MIC (Enterococcus faecalis; first line (r12)): > 64 µg/mL
MIC (Enterococcus faecalis; second line (r15)): > 64 µg/mL
MIC (Enterobacter cloacae): > 64 µg/mL
MIC (Escherichla coli; Escherichla coli): > 64 µg/mL
MIC (Cryptococcus neoformans): > 64 µg/mL
MIC (Neisseria gonorrhoeae; [7]): 16 to 32 µg/mL (≈ 70.1 to 140 µM)
Activity against Neisseria gonorrhoeae, in words (Neisseria gonorrhoeae; broth microdilution assays): demonstrated
MIC [2]: > 64 µg/mL
MIC (Candida albicans): > 64 µg/mL
MIC (Micrococcus luteus): > 64 µg/mL

COc1ccc(/C=C\c2cc(OC)c(OC)c(OC)c2)cc1O [Compound 2a, combretastatin A-4, reference compound]
Prostate DU-145 GI50 (DU-145): 0.0008 µg/mL
Colon KM201.2 GI50 (KM201.2): 0.34 µg/mL
Lung-NSC NCI-H460 GI50 (NCI-H460): 0.0006 µg/mL
IC50 (tubulin [3]): 2 ± 0.2 µM
CNS SF-268 GI50 (SF-268): >0.01 µg/mL
Pancreas-a BXPC-3 GI50 (BXPC-3): 0.39 µg/mL
Inhibition of colchicine binding % Inhibition, 2 μM inhibitor (tubulin [4]): 91%

COc1ccc(/C=C\c2cc(OC)c(OC)c(OC)c2)cc1OP(=O)([O-])[O-].[Na+].[Na+] [Compound 2b, combretastatin A-4 sodium phosphate prodrug]
Tumor vascular function shutdown [5]: rapid, irreversible and extensive

COc1ccc(C=Cc2cc(OC)cc(OC)c2)cc1 [Compound 4a, 3,4′,5-trimethoxystilbene]
Prostate DU-145 GI50 (DU-145): 0.0054 µg/mL
Lung-NSC NCI-H460 GI50 (NCI-H460): 0.0028 µg/mL
Inhibition of tubulin assembly, in words (tubulin [3]): more inhibitory than 2a
IC50 (tubulin [3]): 1.8 ± 0.3 µM
CNS SF-268 GI50 (SF-268): 0.0044 µg/mL
MIC (Streptococcus pneumoniae): > 64 µg/mL
MIC (Staphylococcus aureus): > 64 µg/mL
MIC (Enterococcus faecalis): > 64 µg/mL
Minimum inhibitory concentration (Enterococcus faecalis; second line (r15)): * (no inhibition at 64 μg/ml)
MIC (Enterobacter cloacae): > 64 µg/mL
MIC (Escherichla coli): > 64 µg/mL
MIC (Cryptococcus neoformans): > 64 µg/mL
MIC (Neisseria gonorrhoeae; Neisseria gonorrhoeae, read-out: Minimum inhibitory concentration): > 64 µg/mL
MIC [2]: > 64 µg/mL
MIC (Candida albicans): > 64 µg/mL
MIC (Micrococcus luteus): > 64 µg/mL
Pancreas-a BXPC-3 GI50 (BXPC-3): 0.0034 µg/mL
Inhibition of colchicine binding, in words (tubulin [4]): essentially equivalent to 2a
Inhibition of colchicine binding % Inhibition, 2 μM inhibitor (tubulin [4]): 88 ± 1%
Inhibition of colchicine binding % Inhibition, 5 μM inhibitor (tubulin [4]): 95 ± 1%

COc1cc(C=Cc2ccc(O)cc2)cc(OC)c1 [Compound 14c, 3,5-dimethoxy-4′-hydroxy-stilbene]
GI50 (DU-145; Homo sapiens, DU-145, DU-145): 2.3 µg/mL (≈ 8.97 µM)
GI50 (KM201.2; Homo sapiens, read-out: Colon KM201.2 GI50): 11.9 µg/mL (≈ 46.4 µM)
GI50 (NCI-H460; Homo sapiens, NCI-H460, NCI-H460, read-out: Lung-NSC NCI-H460 GI50): 2.8 µg/mL (≈ 10.9 µM)
Fold less active than 4a as inhibitor of tubulin assembly (tubulin [3]; relative to 4a): 16 fold
IC50 (tubulin [3]): 29 ± 9 µM
GI50 (SF-268; Homo sapiens, SF-268, SF-268, read-out: CNS SF-268 GI50): 2.2 µg/mL (≈ 8.58 µM)
Cytotoxicity against cancer cell lines, comparison in words [6]: comparable to that of resveratrol
Antimicrobial activity, in words (bacteria and fungi): most active of the stilbenes and benzophenones tested
MIC (Streptococcus pneumoniae): 16 µg/mL (≈ 62.4 µM)
MIC (Staphylococcus aureus): 32 µg/mL (≈ 125 µM)
MIC (Enterococcus faecalis; first line (r12)): 32 to 64 µg/mL (≈ 125 to 250 µM)
MIC (Enterococcus faecalis; second line (r15)): > 64 µg/mL
MIC (Enterobacter cloacae): > 64 µg/mL
MIC (Escherichla coli; Escherichla coli): > 64 µg/mL
MIC (Cryptococcus neoformans): 16 µg/mL (≈ 62.4 µM)
MIC (Neisseria gonorrhoeae; [7]): 8 µg/mL (≈ 31.2 µM)
MIC [2]: > 64 µg/mL
MIC (Candida albicans): 64 µg/mL (≈ 250 µM)
MIC (Micrococcus luteus): 8 µg/mL (≈ 31.2 µM)
GI50 (MCF-7): 3 µg/mL (≈ 11.7 µM)
GI50 (BXPC-3; Homo sapiens, BXPC-3, BXPC-3): 12.6 µg/mL (≈ 49.2 µM)

COc1ccc(C(=O)c2cc(OC)cc(OC)c2)cc1 [Compound 16a, 3,4′,5-trimethoxybenzophenone]
melting point: 90.3 to 91.6 °C
Inhibition of tubulin assembly, in words (tubulin [3]): somewhat less potent than 2c
IC50 (tubulin [3]): 2.6 ± 0.3 µM
Cytotoxicity against cancer cell lines, comparison in words [6]: superior in activity to resveratrol (1)
Fold less active (cytotoxicity) than compound 4a ([6]; relative to 4a): 10-100 fold
MIC (Streptococcus pneumoniae): > 64 µg/mL
MIC (Staphylococcus aureus): > 64 µg/mL
MIC (Enterococcus faecalis; first line (r12)): > 64 µg/mL
MIC (Enterococcus faecalis; second line (r15)): > 64 µg/mL
MIC (Enterobacter cloacae): > 64 µg/mL
MIC (Escherichla coli; Escherichla coli): > 64 µg/mL
MIC (Cryptococcus neoformans): > 64 µg/mL
MIC (Neisseria gonorrhoeae; [7]): 32 µg/mL (≈ 118 µM)
MIC [2]: > 64 µg/mL
MIC (Candida albicans): > 64 µg/mL
MIC (Micrococcus luteus): > 64 µg/mL
GI50 (MCF-7): 21.7 µg/mL (≈ 79.7 µM)
Inhibition of colchicine binding, in words (tubulin [4]): least activity in both assays
Inhibition of colchicine binding % Inhibition, 2 μM inhibitor (tubulin [4]): 47 ± 5%
Inhibition of colchicine binding % Inhibition, 5 μM inhibitor (tubulin [4]): 69 ± 0.3%
